For one test, the system named is VSMCs. Description: VSMC proliferation assay (BrdU incorporation). The test is classed as cell-based, mouse. As for the experimental part:
Plates were UV sterilized before adding cells. […] For analysis of peritoneal macrophages, 4% thioglycolate-elicited peritoneal macrophages from Itg α9^MAC+/+ and Itg α9^MACfl/fl mice were suspended in BrdU dissolved in RPMI 1640 media containing 10% FBS. 2.5×10^4 cells were added to each well since peritoneal macrophages are smaller and have lower proliferation rates than VSMCs in culture.
Plates were ultraviolet (UV) sterilized before adding cells. […] Efficient Itgα9 knockdown was confirmed by qPCR.

Test [1] deals with AKT. Description: AKT signaling immunoblot / phospho-array, HUVECs. In kind it is cell-based, human. The note with it: PP1 10 μM, Dynasore 100 μM, vs DMSO. As for the experimental part:
Cellular reagents were purchased from various commercial vendors. Primary human umbilical vein endothelial cells (HUVECs) were obtained from Cell Applications Inc. and cultured according to the manufacture's recommendations. Primary human coronary artery smooth muscle cells were obtained from Invitrogen and were cultured according to the manufacture's recommendations. 293T cells were obtained from ATCC and were cultured according to the manufacture's recommendations. Mouse primary smooth muscle cells were obtained and cultured as described previously. Predesigned Silencer Select siRNA constructs targeting Pearl 1 and negative control siRNA were obtained from ThermoFisher. Transfections were performed using RNAiMAX or Lipofectamine 3000 transfection reagents according to the manufacturer's protocols. Cells were used for signaling assays 48 hours after transfection; efficient Pearl 1 knockdown or Pearl 1 overexpression was confirmed by immunoblot assays.
Prior to performing signaling assays, cells were trypsinized, centrifuged, suspended in basal media, and counted using an automated hemocytometer. Cells were further diluted in basal media to an assay-dependent concentration. Cells were then incubated with gentle agitation for 60 minutes to prevent cell attachment and reduce basal signaling. PP1, Dynasore, MK-2206, and Rapamycin were diluted in DMSO and used in assay concentrations of 10 μM, 100 μM, 10 μM, and respectively, for the final 20-30 minutes of incubation in basal media. An equal volume of DMSO was used as the negative control condition. […] 1 μg Pearl 1 polyclonal antibody was added as a specific positive control. 20% growth media or 2% fetal bovine serum, labeled “Serum” in figures, was added as a non-specific positive control. The cells were centrifuged at 300G for 3 minutes with the exception of platelets, which were centrifuged at 500G for 5 minutes. The cells were then incubated at 37° C. for 8-45 minutes, depending on the cell type and pathway of interest. The cells were lysed in radioimmunoprecipitation buffer (RIPA) containing a cocktail of protease and phosphatase inhibitors and universal nuclease. Immunoblots were performed by standard techniques, as briefly follows. Protein content was determined using a bicinchoninic acid assay with BSA standards (#23225, Pierce BCA Protein Assay Kit). Cell lysates were then reduced with dithiothreitol (DTT) in lithium dodecyl sulfate (LDS) sample buffer (#NP0007, Invitrogen). Equal protein amounts were added to polyacrylamide gels (#4561086, BioRad) and electrophoresed prior to transferring to a nitrocellulose or polyvinylidene fluoride membrane (#1620260, BioRad). Membranes were blocked in 5% BSA/Tris-buffered saline (TBS) with 0.1% Tween 20 for 30 minutes. […]

For another test, the system named is mTOR. Briefly: mTOR signaling immunoblot, platelets. In kind it is cell-based, human. The note with it: platelets pretreated with inhibitor before SVEP1. As for the experimental part: Prior to performing signaling assays, cells were trypsinized, centrifuged, suspended in basal media, and counted using an automated hemocytometer. Cells were further diluted in basal media to an assay-dependent concentration. Cells were then incubated with gentle agitation for 60 minutes to prevent cell attachment and reduce basal signaling. […] An equal volume of DMSO was used as the negative control condition. […] 1 μg Pearl 1 polyclonal antibody was added as a specific positive control. 20% growth media or 2% fetal bovine serum, labeled “Serum” in figures, was added as a non-specific positive control. The cells were centrifuged at 300G for 3 minutes with the exception of platelets, which were centrifuged at 500G for 5 minutes. The cells were then incubated at 37° C. for 8-45 minutes, depending on the cell type and pathway of interest. The cells were lysed in radioimmunoprecipitation buffer (RIPA) containing a cocktail of protease and phosphatase inhibitors and universal nuclease. Immunoblots were performed by standard techniques, as briefly follows. […] Cell lysates were then reduced with dithiothreitol (DTT) in lithium dodecyl sulfate (LDS) sample buffer (#NP0007, Invitrogen). […] Membranes were blocked in 5% BSA/Tris-buffered saline (TBS) with 0.1% Tween 20 for 30 minutes. The indicated primary antibodies were incubated with the pre-blocked membranes overnight at 4° C. Membranes were washed with TBS with 0.1% Tween 20, probed with fluorescent secondary antibodies, and imaged. β-actin or β-tubulin served as a loading control.
Whole blood was collected by venipuncture into either heparin vacutainers (BD, Franklin Lakes) for whole blood experiments or acid-citrate-dextrose (ACD) vacutainers (BD, Franklin Lakes) for platelet isolation studies. For platelet isolation, samples were supplemented with apyrase (Sigma, St Louis) and prostaglandin E1 (Cayman Chemical, Ann Arbor), and platelet-rich plasma (PRP) was prepared by centrifugation of the ACD whole blood for 20 minutes at 200G. […]

The subject of test [2] is AKT. Description: AKT signaling immunoblot, platelets. The note with it: platelets pretreated with inhibitor before SVEP1. In kind it is cell-based, human. The method, then:
Prior to performing signaling assays, cells were trypsinized, centrifuged, suspended in basal media, and counted using an automated hemocytometer. Cells were further diluted in basal media to an assay-dependent concentration. Cells were then incubated with gentle agitation for 60 minutes to prevent cell attachment and reduce basal signaling. PP1, Dynasore, MK-2206, and Rapamycin were diluted in DMSO and used in assay concentrations of 10 μM, 100 μM, 10 μM, and respectively, for the final 20-30 minutes of incubation in basal media. An equal volume of DMSO was used as the negative control condition. […] 1 μg Pearl 1 polyclonal antibody was added as a specific positive control. 20% growth media or 2% fetal bovine serum, labeled “Serum” in figures, was added as a non-specific positive control. The cells were centrifuged at 300G for 3 minutes with the exception of platelets, which were centrifuged at 500G for 5 minutes. The cells were then incubated at 37° C. for 8-45 minutes, depending on the cell type and pathway of interest. The cells were lysed in radioimmunoprecipitation buffer (RIPA) containing a cocktail of protease and phosphatase inhibitors and universal nuclease. Immunoblots were performed by standard techniques, as briefly follows. Protein content was determined using a bicinchoninic acid assay with BSA standards (#23225, Pierce BCA Protein Assay Kit). Cell lysates were then reduced with dithiothreitol (DTT) in lithium dodecyl sulfate (LDS) sample buffer (#NP0007, Invitrogen). Equal protein amounts were added to polyacrylamide gels (#4561086, BioRad) and electrophoresed prior to transferring to a nitrocellulose or polyvinylidene fluoride membrane (#1620260, BioRad). Membranes were blocked in 5% BSA/Tris-buffered saline (TBS) with 0.1% Tween 20 for 30 minutes. The indicated primary antibodies were incubated with the pre-blocked membranes overnight at 4° C. Membranes were washed with TBS with 0.1% Tween 20, probed with fluorescent secondary antibodies, and imaged. β-actin or β-tubulin served as a loading control.
Whole blood was collected by venipuncture into either heparin vacutainers (BD, Franklin Lakes) for whole blood experiments or acid-citrate-dextrose (ACD) vacutainers (BD, Franklin Lakes) for platelet isolation studies. For platelet isolation, samples were supplemented with apyrase (Sigma, St Louis) and prostaglandin E1 (Cayman Chemical, Ann Arbor), and platelet-rich plasma (PRP) was prepared by centrifugation of the ACD whole blood for 20 minutes at 200G. Platelets were isolated from the PRP by centrifugation for 10 minutes at 1000G and resuspended in modified Tyrode's buffer twice at desired platelet counts and kept at 37° C. until used. Isolated platelets were used within 2 hours of preparation.

Test [3] can be described thus: Arterial blood pressure response to vasoactive agents. In kind it is in vivo, mouse. The note with it: venous administration, anesthetized Svep1+/+ and Svep1−/− mice. The method, then: Central arterial blood pressure and heart rate were measured under inhaled 1.5% isoflurane anesthesia and while mice were maintained at 37° C. using a heating pad and rectal thermometer, as done previously. Briefly, a midline incision was performed in the neck region; the thymus, muscle, and connective tissue were dissected away to isolate the right common carotid artery. After tying it distally and clamping it proximally, an incision was made in the right common carotid artery through which a Millar pressure transducer (model SPR-1000, Houston, Tex.) was introduced, the clamp was removed, and the transducer advanced to the ascending aorta. Once instrumentation was complete, arterial blood pressure (systolic, diastolic, and mean) and heart rate were recorded via the PowerLab® data acquisition system (ADlnstruments, Colorado Springs, Colo.). The average of a 3-minute period of stable recording was reported. Data were analyzed using LabChart® 8 for 673 MAC software (ADInstruments).
To assess the blood pressure response to vasoactive agents, after baseline blood pressure measurement, dissection was performed to visualize the left internal jugular (IJ) vein as done previously. Once identified, a small incision was made and PE-10 tubing was introduced and kept in place with a 6-0 silk suture. […]

Take `C[C@H](NC(=O)Cc1cc(F)cc(F)c1)C(=O)N[C@H](C(=O)OC(C)(C)C)c1ccccc1` [DAPT, reference compound]: in the test with VSMCs (25 μM DAPT), the “effect on cell proliferation in response to 10% fetal bovine serum” value is on record as “not significantly inhibited”. In the test on VSMCs (25 μM DAPT vs DMSO), the “effect on SVEP1-induced proliferation” value is on record as “completely abrogated”.
As to `O=C(N/N=C/c1ccc(O)c(O)c1)c1cc2ccccc2cc1O` [Dynasore], the “effect of inhibitor pretreatment on AKT activation by SVEP1 and Pearl 1 pAb” value with AKT [1] is “abrogated”. Besides, in the test with mTOR, the “dependence of SVEP1-induced p70S6K Thr 389 phosphorylation on the inhibited protein or process” value (“dependence … on the inhibited protein or process” for short) is “partially dependent”. Besides, in the test on AKT [2], the “effect of inhibitor on activation of AKT by SVEP1” value is “partially abrogated”.
Consider `NC1(c2ccc(-c3nc4ccn5c(=O)[nH]nc5c4cc3-c3ccccc3)cc2)CCC1` [MK-2206], for which, in the test on mTOR, the “dependence … on the inhibited protein or process” value is “partially dependent”. Also, the “effect of inhibitor on activation of AKT by SVEP1” value with AKT [2] is reported as “completely abrogated”.
For `Cc1ccc(-c2nn(C(C)(C)C)c3ncnc(N)c23)cc1` [PP1], in the test with AKT [1], the “effect of inhibitor pretreatment on AKT activation by SVEP1 and Pearl 1 pAb” value is listed as “abrogated”. Besides, the “dependence … on the inhibited protein or process” value with mTOR is recorded as “dependent”. Moreover, the “effect of inhibitor on activation of AKT by SVEP1” value in the test with AKT [2] is “completely abrogated”.
For the compound `CNC[C@H](O)c1cccc(O)c1` [phenylephrine], the “change in blood pressure” value in test [3] is “dose-dependent manner”.
Regarding angiotensin II, in test [3], the “change in blood pressure” value was “dose-dependent manner”.

The values are drawn from patent publication US20230159620A1, “COMPOSITIONS AND METHODS OF TREATMENT FOR VASCULAR DISEASES AND THROMBOSIS” (Washington University, priority 2021, published 2023).
